These results are taken from PubChem BioAssay AID1626 (SRMLSC, 2009).

The subject of this experiment is M. tuberculosis H37Rv growth inhibition. Description: M. tuberculosis H37Rv growth inhibitors, H37Rv strain (AID 1626). The settings on record: for IC90: measured here: IC90 against H37Rv; for CC50: measured here: Vero cell cytotoxicity.

A value given as a limit tells only on which side of the number the result lay.

The term IC50 denotes the point on the concentration scale where inhibition reaches its midpoint. Broadly, the IC90 is the concentration needed for an effect of 90%. By CC50 is commonly meant the concentration at which the toxic effect on the cells reaches its halfway point. A higher CC50 goes with better tolerance by the cells.

Regarding `Cc1cc(C)n(-c2nc(NC(C)(C)C)nc(NC(C)(C)C)n2)n1`, the IC50 is below 0.195 µM, the 90% effect concentration (IC90) was found to be 21 µM and the half-maximal cytotoxic concentration (CC50) was above 40 µM.

With `CCOC(=O)c1cccc(N/C=C/C(=O)c2ccc(OC)c(OC)c2)c1`, the IC50 was 24 µM and the concentration for an effect of 90% (IC90) was above 100 µM.

`Cc1ccc(N=C/C(C(=O)C(F)(F)F)=C(\O)c2ccco2)cc1Cl` returned a 90% effect concentration (IC90) above 100 µM.

As to `[O-][n+]1onc2c3cc(-c4ccccc4)nnc3ccc21`, the half-inhibitory concentration (IC50) is below 0.195 µM and the IC90 is 0.443 µM.

Turning to `COc1ccc2nc(SCC(=O)Nc3ccc4c(c3)CCC4)[nH]c2c1`, the IC50 is 15.6 µM and the IC90 was above 100 µM.

In the case of `Cn1cnc([N+](=O)[O-])c1S(=O)(=O)c1cccc(Cl)c1`, the IC50 is 10.9 µM, the 90% effect concentration (IC90) came to 11.8 µM and the CC50 came to 18.7 µM.

As to `COc1cccc(-c2nnc(SCC(=O)Nc3cc(C)on3)o2)c1`, the IC50 is 5.8 µM, the concentration for an effect of 90% (IC90) amounted to 8.52 µM and the 50% cytotoxic concentration (CC50) is above 40 µM.

In the case of `CCC(C)c1ccccc1NC(=O)CN1CCN(C/C=C/c2ccccc2)CC1` (configuration not stated), the half-inhibitory concentration (IC50) is 21.9 µM and the IC90 amounted to 35.1 µM.

For the compound `COc1ccc(S(=O)(=O)Oc2ccc3c(c2)O/C(=C\c2cccnc2)C3=O)cc1`, the IC50 is 2.34 µM and the IC90 was found to be 19.4 µM.

Turning to `COc1ccc(/C=C2\COc3ccccc3C2=O)cc1OC`, the concentration for half-maximal inhibition (IC50) is 9.44 µM, the 90% effect concentration (IC90) amounted to 14.6 µM and the CC50 came out at 29.2 µM.

For the compound `Nc1nc(Cl)cc(N2CCC(c3cc(-c4ccc(Cl)cc4)n[nH]3)CC2)n1`, the 50% inhibitory concentration (IC50) was 77.9 µM, the IC90 is above 100 µM and the CC50 was determined as 13.6 µM.

As to `CCOC(=O)C1(CCc2ccccc2)CCN(Cc2ccccn2)CC1`, the IC50 was 19.7 µM and the IC90 is above 100 µM.

Regarding `Cc1ccc(NC(=O)c2sc3nc(C)nc(N4CCN(c5ccccn5)CC4)c3c2C)c(C)c1`, the 50% inhibitory concentration (IC50) was 10.7 µM and the IC90 is above 100 µM.

On to `COc1ccc(N=Cc2c(O)c3ccccc3oc2=O)cc1`, for which the concentration for an effect of 90% (IC90) was above 100 µM and the cytotoxic concentration (CC50) is above 40 µM.

`Cc1ccccc1NC(=O)Nc1ccc(C(F)(F)F)cc1`: the IC90 was above 100 µM and the CC50 was 23.5 µM.

Take `Oc1cccc2ccc(/C=C/c3c(F)cccc3Cl)nc12`: the IC50 was 1.37 µM, the 90% effect concentration (IC90) stood at 6.64 µM and the CC50 was above 40 µM.

Regarding `CCCNC(=O)CSc1nnc(-c2ccc(F)cc2)o1`, the half-maximal inhibitory concentration (IC50) was 5.88 µM and the concentration for an effect of 90% (IC90) was above 100 µM.

In the case of `Oc1ccc(Cl)cc1N=Cc1sc2ccccc2c1Cl`, the IC50 is 6.53 µM, the IC90 came out at 66.7 µM and the CC50 was above 40 µM.

For `CCCCCCC(=O)Nc1nc(C)c(-c2csc(Nc3ccccc3OC)n2)s1`, the half-maximal inhibitory concentration (IC50) was 5.48 µM, the 90% effect concentration (IC90) is 9.63 µM and the cytotoxic concentration (CC50) was above 40 µM.

Consider `Cc1nc(N2CCN(Cc3ccc(Cl)cc3)CC2)c2oc3ccccc3c2n1`, for which the IC50 was 15.7 µM, the IC90 came out at 19.8 µM and the CC50 is above 40 µM.

As for `O=C(Nc1ccc(-c2csc(Nc3cccc(C(F)(F)F)c3)n2)cc1)c1cc([N+](=O)[O-])cc(C(F)(F)F)c1`, the half-inhibitory concentration (IC50) is 7.37 µM, the 90% effect concentration (IC90) is above 100 µM and the CC50 was 20.2 µM.

As for `CCOC(=O)CSc1ncnc2c1cnn2-c1ccccc1`, the IC50 was 1.37 µM and the 90% effect concentration (IC90) was found to be 14.6 µM.

For `O=C(/C=C/c1ccccc1F)c1cccc([N+](=O)[O-])c1`, the half-inhibitory concentration (IC50) was 6.24 µM, the concentration for an effect of 90% (IC90) was found to be 6.73 µM and the 50% cytotoxic concentration (CC50) is above 40 µM.

Turning to `Cc1ccccc1OCC(=O)Nc1nc2ccccc2[nH]1`, the IC50 is 4.82 µM and the IC90 came to 16.2 µM.

`CC(C)(C)c1ccc(C(=O)NCCCN2CCN(CCCNC(=O)c3ccc(C(C)(C)C)cc3)CC2)cc1`: the IC50 was 5.43 µM, the 90% effect concentration (IC90) worked out at 7.12 µM and the CC50 was found to be 27.4 µM.

Consider `COc1ccc(CN2CCN(CC(O)Cn3c4ccccc4c4ccccc43)CC2)cc1` (configuration not stated), for which the IC50 was 5.34 µM, the 90% effect concentration (IC90) came to 8.3 µM and the half-maximal cytotoxic concentration (CC50) came out at 15 µM.

With `O=C(Nc1nnc(C2=COCCO2)o1)c1ccc(Cl)cc1`, the IC50 is 2.71 µM, the concentration for an effect of 90% (IC90) worked out at 4.41 µM and the CC50 is above 40 µM.

Turning to `CC(C)c1ccc2nc(N)sc2c1`, the IC50 was 43.3 µM, the IC90 is above 100 µM and the CC50 is above 40 µM.

As for `O=C(/C=C/c1ccc(-c2ccc(F)cc2)o1)N1CCCC1`, the IC50 is 14 µM and the concentration for an effect of 90% (IC90) is above 100 µM.

With `CC1CCN(c2nc(-c3ccncc3)nc3ccccc23)CC1`, the half-maximal inhibitory concentration (IC50) is 4.62 µM, the IC90 was 6.52 µM and the CC50 is above 40 µM.

Consider `O=C(NCCc1nc2ccccc2[nH]1)/C(=C/c1ccc2c(c1)OCO2)NC(=O)c1ccc(Cl)cc1Cl`, for which the half-inhibitory concentration (IC50) is 20.6 µM and the IC90 amounted to 52.9 µM.

With `CCOc1ccc(NCc2ccccc2OCc2cccc(F)c2)cc1`, the IC50 was 8.84 µM and the IC90 is above 100 µM.

In the case of `CCc1cccc2c(C(=O)COC(=O)c3ccc([N+](=O)[O-])s3)c[nH]c12`, the 50% inhibitory concentration (IC50) was below 0.195 µM, the 90% effect concentration (IC90) was 0.99 µM and the CC50 was above 40 µM.

With `O=C(/C=C/Nc1ccc(Oc2ccccc2Cl)cc1)c1ccco1`, the IC90 was above 100 µM and the CC50 is above 40 µM.

Turning to `CCOC(=O)C1CCCN(c2ccc([N+](=O)[O-])c3nonc23)C1` (configuration not stated), the IC50 is 1.46 µM and the 90% effect concentration (IC90) was 1.6 µM.

On to `CN(Cc1nc2ccccc2c(=O)[nH]1)Cc1nc2ccsc2c(=O)[nH]1`, for which the 50% inhibitory concentration (IC50) was 1.95 µM and the concentration for an effect of 90% (IC90) was found to be 4.36 µM.

On to `O=C(COc1ccc(Cl)cc1)Nc1ccc2c(c1)CCC2`, for which the concentration for half-maximal inhibition (IC50) was 12.6 µM and the IC90 is above 100 µM.

Consider `CCN(CC)C(=O)CSc1nnc2nnc3cc(Cl)ccc3n12`, for which the IC50 is 1.22 µM, the IC90 came to 7.51 µM and the half-maximal cytotoxic concentration (CC50) came out at 19.8 µM.

With `Cc1ccc(C(=O)Nc2nc(C)c(C(=O)Nc3ccc4c(c3)CCC4)s2)cc1`, the IC50 was 2.67 µM, the IC90 is 5.77 µM and the CC50 turned out to be 7.56 µM.

In the case of `Oc1ccccc1N=Cc1ccc[nH]1`, the IC50 was 3.04 µM, the IC90 came to 6.39 µM and the CC50 is above 40 µM.

Regarding `CC(C)(C)C(=O)/C(=C/c1ccncc1)n1cncn1`, the concentration for half-maximal inhibition (IC50) is 8.39 µM, the IC90 was 11.7 µM and the CC50 was 5.11 µM.

Regarding `O=C(Nc1nc(-c2ccccn2)cs1)C1CC1`, the IC50 is 3.96 µM, the IC90 is above 100 µM and the CC50 is above 40 µM.

With `O=C(COC(=O)c1ccccc1Br)NCCC1=CCCCC1`, the IC50 was 17.6 µM and the IC90 was above 100 µM.

Regarding `O=C(CC(=O)c1ccccc1O)c1cccc(F)c1`, the IC50 is 18.4 µM, the 90% effect concentration (IC90) was found to be 29.2 µM and the CC50 was above 40 µM.

For `O=C(Nc1nc(-c2ccccn2)cs1)C1CCCC1`, the concentration for half-maximal inhibition (IC50) is 2.54 µM, the IC90 was 5.83 µM and the half-maximal cytotoxic concentration (CC50) was above 40 µM.

In the case of `O=c1[nH][nH]c(-c2ccccc2O)c1C(C[N+](=O)[O-])c1ccc(Cl)cc1Cl` (configuration not stated), the half-maximal inhibitory concentration (IC50) is 10.5 µM, the IC90 was 15 µM and the 50% cytotoxic concentration (CC50) is above 40 µM.

`Cc1cc2oc3c(c(=O)c2cc1C)C(c1cccc(Br)c1)N(Cc1ccco1)C3=O` (configuration not stated): the IC50 is 5.92 µM, the IC90 is above 100 µM and the CC50 was 13.9 µM.

With `C(=C\c1nccc2c1[nH]c1ccccc12)/c1ccccc1`, the IC50 was 8.41 µM, the IC90 is 11.3 µM and the CC50 came out at 29.4 µM.

Consider `O=C(CSc1nc2ccccc2[nH]1)N1c2ccccc2Sc2ccccc21`, for which the concentration for half-maximal inhibition (IC50) was 17.4 µM, the IC90 is above 100 µM and the CC50 is above 40 µM.

With `O=C1c2ccc3c4c(ccc(c24)C(=O)N1CCCCO)C(=O)N(CCCCO)C3=O`, the IC50 was 7.04 µM, the 90% effect concentration (IC90) stood at 12.9 µM and the CC50 worked out at 5.2 µM.

Regarding `Cc1ccn2c(NC3CCCC3)c(-c3ccccn3)nc2c1`, the IC50 is 3.19 µM, the 90% effect concentration (IC90) came to 5.24 µM and the CC50 came to 8.93 µM.

`COC(=O)Cc1ccc(NC(=O)c2ccc(Br)o2)cc1` came in with a concentration for an effect of 90% (IC90) above 100 µM.

Turning to `COC(=O)CSc1nc2ccc(NC(=O)c3ccccc3C(=O)N3CCOCC3)cc2s1`, the IC50 was 8.89 µM and the IC90 is above 100 µM.

For the compound `CCOC(=O)c1cnc(-n2nc(C)cc2C)nc1Nc1ccc(OC)cc1`, the IC50 is 0.641 µM and the 90% effect concentration (IC90) came to 1.27 µM.

With `c1ccc(CN2CCC(N=C3NN=C(c4ccc5c(c4)OCCO5)CS3)CC2)cc1`, the IC50 was 18.2 µM, the concentration for an effect of 90% (IC90) amounted to 21.6 µM and the CC50 is above 40 µM.

For `CC(=O)c1ccc(OCC(=O)Nc2ccc3c(c2)CCC3)cc1`, the IC50 is 12.6 µM, the 90% effect concentration (IC90) is above 100 µM and the CC50 was above 40 µM.

With `CCCCOC(=O)c1ccc(NC(=O)C(=O)NCc2cccnc2)cc1`, the IC50 was 22.1 µM and the IC90 was above 100 µM.

In the case of `CCCCCc1cc(=O)oc2c(C(CCN(CC)CC)c3ccc(OC)cc3)c(OC)cc(OC)c12` (configuration not stated), the half-inhibitory concentration (IC50) was 9.08 µM, the IC90 worked out at 11.7 µM and the half-maximal cytotoxic concentration (CC50) was 13 µM.

In the case of `COc1ccccc1N1CCN(c2nc(C)nc3c2oc2ccccc23)CC1`, the 50% inhibitory concentration (IC50) was 1.74 µM, the IC90 is 3.89 µM and the cytotoxic concentration (CC50) was found to be 5.01 µM.

In the case of `Cc1ccc(C)c(N=Nc2ccc(O)c3ncccc23)c1`, the IC50 is 68.5 µM, the IC90 was above 100 µM and the cytotoxic concentration (CC50) is 1.85 µM.

With `Cc1ccc(OCCC(=O)Nc2ccc(C)c(F)c2)cc1`, the 90% effect concentration (IC90) is above 100 µM.

In the case of `CCc1ccc(-c2nn(-c3ccccc3)cc2CSC(=N)N)cc1`, the half-inhibitory concentration (IC50) was 6.73 µM, the IC90 was 10.7 µM and the CC50 was found to be 14 µM.

`COc1ccc(Br)cc1C(C[N+](=O)[O-])c1c(N)n(C)c(=O)n(C)c1=O` (configuration not stated): the IC50 was 8.08 µM, the concentration for an effect of 90% (IC90) was determined as 12.5 µM and the CC50 worked out at 9.3 µM.

As to `CC1(C)CC(=O)C2=C(C1)OC(N)=C([N+](=O)[O-])C2c1ccc(C#N)s1` (configuration not stated), the IC50 was 10.9 µM and the IC90 amounted to 15.2 µM.
